Structures can show the parent of a compound that is named as a salt.
Test system: HeLa cells
Experiment: CellTiter-Glo luminescent cell viability (cytotoxicity) assay
Assay type: cell-based
Conditions: 10 μM test compound, 48 hours, inhibition of luminescence compared to control cells, 10 µM
Method: Cytotoxicity was assessed using Promega's CellTiter-Glo® luminescent cell viability assay (Promega Corporation, Madison, Wis., USA) as described in Promega Technical Bulletin TB288, revised August 2008. The assay was performed in HeLa cells at a maximum concentration tested of 10 μM of test compound. This assay measures the amount of adenosine triphosphate (ATP) present as a way of quantifying the presence and degree of metabolic activity in cell cultures.
Viable Hela cells were plated at a density of 3000 cells/well in 96 wells in black, clear bottom plates. Cells were allowed to attach to the plate by incubating overnight at 37° C. Test compounds were diluted in DMSO then further diluted in 10% FBS media. Media was removed from the cell plates and 50 μL of the solution was added to each well manually with the exception of the control well, which contained the same volume of 10% FBS media which includes 1% DMSO. Cells were incubated in the presence of compound undisturbed for 48 hours at 37° C. After the 48 hour compound exposure, 50 μL of the pCellTiter Glo® reagent was added. The cell plates were agitated on a shaker for 2 minutes to help lyse the cells. The plate was covered and read for luminescence.
Percent inhibition was calculated as follows: PCT_INHIB=100*[(U−T)/U] Where U represents the Luminescence of wells containing untreated cells and
T represents the Luminescence of wells containing compound-treated cells

| SMILES | Activity (PCT_INHIB @ 10 μM) [%] |
| --- | --- |
| COc1ccc(Cl)c(CN(Cc2cccc(CN3C(C(=O)NC45CC6CC(CC(C6)C4)C5)CCS3(=O)=O)c2)[C@H](CN(C)C)CC(C)(C)C)c1F (single isomer, unassigned; epimer 1) [Example 33] | 96 |

Same assay, conditions: Homo sapiens, HeLa, 48 h, 10 μM test compound, inhibition of luminescence compared to control cells, read-out: Activity (PCT_INHIB @ 10 μM)

| SMILES | inhibition at 10 µM [%] |
| --- | --- |
| COc1ccc(F)c(F)c1CN(Cc1cccc(CN2C(C(=O)N[C@H]3C[C@H]4C[C@@H]([C@@H]3C)C4(C)C)CCS2(=O)=O)c1)[C@@H](Cc1ccccc1)CN(C)C (stereo partly drawn) [Example 29, 2-(3-{[(2,3-Difluoro-6-methoxy-benzyl)-((S)-1-dimethylaminomethyl-2-phenyl-ethyl)-amino]-methyl}-benzyl)-1,1-dioxo-1λ^6-isothiazolidine-3-carboxylic acid((1S,2S,3S,5R)-2,6,6-trimethyl-bicyclo[3.1.1]hept-3-yl)-amide] | 95 |
| C[C@@H]1[C@@H](NC(=O)C2CCS(=O)(=O)N2Cc2cccc(CN(Cc3c(F)ccc(F)c3F)[C@H](CN(C)C)CC(C)(C)C)c2)C[C@H]2C[C@@H]1C2(C)C (stereo partly drawn) [Example 13, 2-(3-{[((S)-1-Dimethylaminomethyl-3,3-dimethyl-butyl)-(2,3,6-trifluoro-benzyl)-amino]-methyl}-benzyl)-1,1-dioxo-1λ^6-isothiazolidine-3-carboxylic acid((1S,2S,3S,5R)-2,6,6-trimethyl-bicyclo[3.1.1]hept-3-yl)-amide trifluoroacetate salt] | 93 |
| COc1ccc(Cl)c(CN(Cc2cccc(CN3C(C(=O)N[C@H]4C[C@H]5C[C@@H]([C@@H]4C)C5(C)C)CCS3(=O)=O)c2)[C@@H](Cc2ccccc2)CN(C)C)c1F (stereo partly drawn) [Example 21, 2-(3-{[(6-Chloro-2-fluoro-3-methoxy-benzyl)-((S)-1-dimethylaminomethyl-2-phenyl-ethyl)-amino]-methyl}-benzyl)-1,1-dioxo-1λ^6-isothiazolidine-3-carboxylic acid((1S,2S,3S,5R)-2,6,6-trimethyl-bicyclo[3.1.1]hept-3-yl)-amide] | 77 |
| C[C@@H]1[C@@H](NC(=O)C2CCS(=O)(=O)N2Cc2cccc(CN(Cc3c(F)ccc(Br)c3F)[C@H](CN(C)C)CC(C)(C)C)c2)C[C@H]2C[C@@H]1C2(C)C (stereo partly drawn) [Example 18, 2-(3-{[(3-Bromo-2,6-difluoro-benzyl)-((S)-1-dimethylaminomethyl-3,3-dimethyl-butyl)-amino]-methyl}-benzyl)-1,1-dioxo-1λ^6-isothiazolidine-3-carboxylic acid((1S,2S,3S,5R)-2,6,6-trimethyl-bicyclo[3.1.1]hept-3-yl)-amide trifluoroacetate salt] | 94 |
| COc1ccc(Br)c(CN(Cc2cccc(CN3C(C(=O)N[C@H]4C[C@H]5C[C@@H]([C@@H]4C)C5(C)C)CCS3(=O)=O)c2)[C@H](CN(C)C)CC(C)(C)C)c1O (stereo partly drawn) [Example 14, 2-(3-{[(6-Bromo-2-hydroxy-3-methoxy-benzyl)-((S)-1-dimethylaminomethyl-3,3-dimethyl-butyl)-amino]-methyl}-benzyl)-1,1-dioxo-1λ^6-isothiazolidine-3-carboxylic acid((1S,2S,3S,5R)-2,6,6-trimethyl-bicyclo[3.1.1]hept-3-yl)-amide trifluoroacetate salt] | 75 |
| COc1ccc(Cl)c(CN(Cc2cccc(CN3C(C(=O)N4CCC(c5ccccc5)CC4)CCS3(=O)=O)c2)[C@H](CN(C)C)CC(C)(C)C)c1F (stereo partly drawn) [Example 24, [2-(3-{[(6-Chloro-2-fluoro-3-methoxy-benzyl)-((S)-1-dimethylaminomethyl-3,3-dimethyl-butyl)-amino]-methyl}-benzyl)-1,1-dioxo-1λ^6-isothiazolidin-3-yl]-(4-phenyl-piperidin-1-yl)-methanone] | 96 |
| COc1ccc(Cl)c(CN(Cc2cc(CN3C(C(=O)N[C@H]4C[C@H]5C[C@@H]([C@@H]4C)C5(C)C)CCS3(=O)=O)cc(N(C)C)c2)[C@H](CN(C)C)CC(C)(C)C)c1F (stereo partly drawn) [Example 35, 2-(3-{[(6-Chloro-2-fluoro-3-methoxy-benzyl)-((S)-1-dimethylaminomethyl-3,3-dimethyl-butyl)-amino]-methyl}-5-dimethylamino-benzyl)-1,1-dioxo-1λ^6-isothiazolidine-3-carboxylic acid((1S,2S,3S,5R)-2,6,6-trimethyl-bicyclo[3.1.1]hept-3-yl)-amide, hydrochloride salt] | 86 |
| Cc1ccc(Cl)c(CN(Cc2cccc(CN3C(C(=O)N[C@H]4C[C@H]5C[C@@H]([C@@H]4C)C5(C)C)CCS3(=O)=O)c2)[C@H](CN(C)C)CC(C)(C)C)c1F (stereo partly drawn) [Example 15, 2-(3-{[(6-Chloro-2-fluoro-3-methyl-benzyl)-((S)-1-dimethylaminomethyl-3,3-dimethylbutyl)-amino]-methyl}-benzyl)-1,1-dioxo-1λ^6-isothiazolidine-3-carboxylic acid((1S,2S,3S,5R)-2,6,6-trimethyl-bicyclo[3.1.1]hept-3-yl)-amide trifluoroacetate salt] | 91 |
| COc1ccc(Cl)c(CN(Cc2cccc(CN3C(C(=O)N[C@@H]4C[C@@H]5C[C@H]([C@H]4C)C5(C)C)CCS3(=O)=O)c2)[C@H](CN(C)C)CC(C)(C)C)c1F (stereo partly drawn) [Example 19, 2-(3-{[(6-Chloro-2-fluoro-3-methoxy-benzyl)-((S)-1-dimethylaminomethyl-3,3-dimethyl-butyl)-amino]-methyl}-benzyl)-1,1-dioxo-1λ^6-isothiazolidine-3-carboxylic acid((1R,2R,3R,5S)-2,6,6-trimethyl-bicyclo[3.1.1]hept-3-yl)-amide] | 73 |
| C[C@@H]1[C@@H](NC(=O)C2CCS(=O)(=O)N2Cc2cccc(CN(Cc3cc(Cl)ccc3O)[C@H](CN(C)C)CC(C)(C)C)c2)C[C@H]2C[C@@H]1C2(C)C (stereo partly drawn) [Example 1, 2-(3-{[(5-Chloro-2-hydroxy-benzyl)-((S)-1-dimethylaminomethyl-3,3-dimethyl-butyl)-amino]-methyl}-benzyl)-1,1-dioxo-1λ^6-isothiazolidine-3-carboxylic acid((1S,2S,3S,5R)-2,6,6-trimethyl-bicyclo[3.1.1]hept-3-yl)-amide] | 96 |
| COc1ccc(Cl)c(CN(Cc2cccc(CN3C(C(=O)N[C@H]4CC5CCC4(C)C5(C)C)CCS3(=O)=O)c2)[C@H](CN(C)C)CC(C)(C)C)c1F (stereo partly drawn) [Example 28, 2-(3-{[(6-Chloro-2-fluoro-3-methoxy-benzyl)-((S)-1-dimethylaminomethyl-3,3-dimethyl-butyl)-amino]-methyl}-benzyl)-1,1-dioxo-1λ^6-isothiazolidine-3-carboxylic acid((S)-1,7,7-trimethyl-bicyclo[2.2.1]hept-2-yl)-amide] | 96 |
| COc1ccc(Cl)c(CN(Cc2cccc(CN3C(C(=O)N4CCC(O)(c5ccc(Cl)cc5)CC4)CCS3(=O)=O)c2)[C@H](CN(C)C)CC(C)(C)C)c1F (stereo partly drawn) [Example 32, [2-(3-{[(6-Chloro-2-fluoro-3-methoxy-benzyl)-((S)-1-dimethylaminomethyl-3,3-dimethyl-butyl)-amino]-methyl}-benzyl)-1,1-dioxo-1λ^6-isothiazolidin-3-yl]-[4-(4-chloro-phenyl)-4-hydroxy-piperidin-1-yl]-methanone] | 96 |
| Cc1ccccc1-c1ccccc1CN(Cc1cccc(CN2C(C(=O)N[C@H]3C[C@H]4C[C@@H]([C@@H]3C)C4(C)C)CCS2(=O)=O)c1)[C@H](CN(C)C)CC(C)(C)C (stereo partly drawn) [Example 11, 2-(3-{[((S)-1-Dimethylaminomethyl-3,3-dimethyl-butyl)-(2′-methyl-biphenyl-2 ylmethyl)-amino]-methyl}-benzyl)-1,1-dioxo-1λ^6-isothiazolidine-3-carboxylic acid((1S,2S,3S,5R)-2,6,6-trimethyl-bicyclo[3.1.1]hept-3-yl)-amide trifluoroacetate salt] | 97 |
| COc1ccc(Cl)c(CN(Cc2cccc(CN3C(C(=O)NC4C5CC6CC(C5)CC4C6)CCS3(=O)=O)c2)[C@H](CN(C)C)CC(C)(C)C)c1F (stereo partly drawn) [Example 30, 2-(3-{[(6-Chloro-2-fluoro-3-methoxy-benzyl)-((S)-1-dimethylaminomethyl-3,3-dimethyl-butyl)-amino]-methyl}-benzyl)-1,1-dioxo-1λ^6-isothiazolidine-3-carboxylic acid adamantan-2-ylamide] | 96 |

Reference: US8314250B2, “Sultam derivatives” (Hoffmann-La Roche Inc., priority 2009, dated 2012)
